The source of these data is the NIST ThermoML archive (doi:10.1021/je0501585).

Data set [1] is described as follows: xn = mol fraction of the nth substance listed. The note with it: 101 kPa, Liquid, x2 = 0; for viscosity: Capillary tube (Ostwald / Ubbelohde) method; for excess molar volume: Direct dilatometry; for speed of sound: Linear variable-path acoustic interferometer.
For data set [2] the following is noted: Liquid; for viscosity / speed of sound: 101 kPa; for viscosity: Capillary tube (Ostwald / Ubbelohde) method; for speed of sound: Linear variable-path acoustic interferometer; for mass density: 101.33 kPa, Pycnometric method.

Numbers after ± are expanded uncertainties.

With `CCCCCCCCCC` [decane] + Cc1ccc(C)cc1, in data set [1] (303.15 K), the viscosity (as a rule, the internal friction of a fluid under shear) was 0.786 ± 0.021 mPa·s; the excess molar volume amounted to 0 ± 6e-09 m3/mol; the speed of sound (usually the propagation velocity of pressure waves in the medium) was found to be 1210 ± 5.2 m/s. In data set [1] (308.15 K), the viscosity came out at 0.717 ± 0.019 mPa·s, the excess molar volume is listed as 0 ± 6e-09 m3/mol and the speed of sound stood at 1189 ± 5.2 m/s. Besides, in data set [1] (313.15 K), the viscosity was determined as 0.694 ± 0.019 mPa·s, the excess molar volume is listed as 0 ± 6e-09 m3/mol and the speed of sound is recorded as 1175.3 ± 5.2 m/s.

For `Cc1ccc(C)cc1` [1,4-dimethylbenzene], in data set [2] (303.15 K), the viscosity was found to be 0.566 ± 0.016 mPa·s, the speed of sound was determined as 1283.7 ± 5.2 m/s and the mass density (commonly the mass of a sample divided by its volume) is recorded as 852.3 ± 2.3 kg/m3. Besides, in data set [2] (308.15 K), the viscosity came out at 0.537 ± 0.015 mPa·s, the speed of sound turned out to be 1271 ± 5.2 m/s and the mass density amounted to 847.9 ± 2.3 kg/m3. For the same compound, in data set [2] (313.15 K), the viscosity is 0.513 ± 0.015 mPa·s, the speed of sound was 1260 ± 5.2 m/s and the mass density was determined as 843.6 ± 2.2 kg/m3. The vapor or sublimation pressure (commonly the equilibrium pressure above the liquid or solid) in data set [2] (410 K) came out at 97.3 ± 4.9 kPa.

With `CCCCCCCCCC` [decane], in data set [2] (303.15 K), the viscosity came to 0.786 ± 0.021 mPa·s, the speed of sound is listed as 1210 ± 5.2 m/s and the mass density was 722.3 ± 1.9 kg/m3. Besides, in data set [2] (308.15 K), the viscosity was 0.717 ± 0.019 mPa·s, the speed of sound is on record as 1189 ± 5.2 m/s and the mass density is 718.2 ± 1.9 kg/m3. Further, in data set [2] (313.15 K), the viscosity was 0.694 ± 0.019 mPa·s, the speed of sound worked out at 1175.3 ± 5.2 m/s and the mass density is on record as 714.7 ± 1.9 kg/m3. For the same compound, the “vapor or sublimation pressure” value in data set [2] (445.7 K) is on record as 97.3 ± 4.9 kPa.
